Test system: DIO mice (C57BL/6NTac, high fat diet)
Experiment: body weight study in diet-induced obese (DIO) mice, 56 days
Format: in vivo, mouse
Conditions: DA 92.4 mg/kg, CQL 50 mg/kg, gavage BID
Method: This example provides results of a study of DA plus another compound (CQL) on body weight in diet-induced (DIO) mice. Adult C57BL/6NTac mice were fed with a high fat diet (60%). Vehicle group (N=15) were treated with distilled water by gavage BID, CQL (N=15) were treated at 50 mg/kg by gavage BID, and DA (N=15) at a dose of 92.4 mg/kg by gavage BID. The study period was for 56 days+2-3 days testing period afterward. […] Metabolic biomarkers were measured on days 28 and 56. Cytokine analysis on Days 28 and 56. Serum levels of GLP-1, GLP-2, and CCK at 1 h after dosing on Days 1 and 56, and at 2 h after dosing on Day 7 (dosing (>6 h fasting prior to dosing until after blood collection); and serum level of PPY on Day 56.

## Oc1c(I)cc(Cl)c2cccnc12 [CQL]
  serum HbA1c level at Day 28: significantly reduced
  serum HbA1c level at Day 56: considerably increased
Compared to vehicle
  daily water intake at Day 28: significantly decreased

From US20220193013A1, “Pharmaceutical Composition for Treatment or Prevention of Multiple Inflammatory Disorders” (priority 2020, published 2022)
